Results on 11 molecules are retold here after patent US7329522B2, “Polyphosphate:AMP phosphotransferase” (Yamasa Corporation, priority 2002, dated 2008).

The target of data set [1] is T1, PAP (polyphosphate:AMP phosphotransferase) (Acinetobacter johnsonii, UniProt Q83XD3).
T1 construct: the PAP gene codes for the polypeptide (molecular weight: 55.8 kd) comprising 475 amino acids; made in house; host or cells: E. coli JM109 carrying plasmid pPAP2
Kind of data set: Synthesis of NDP from NMP with PAP and polyphosphate, HPLC analysis. To be noted: 10 mM NMP, polyphosphate 30 mM, PAP 16 units/ml, 37° C., 30 minutes. Type of data set: biochemical.

For data set [2], the target named is T1, PAP (polyphosphate:AMP phosphotransferase). Nature of the data set: Substrate specificity of PAP: NDP or dNDP produced from NMP or dNMP, measured by HPLC. To be noted: relative to phosphorylation of AMP = 100%; 5 mM NMP or dNMP, polyphosphate 10 mM, 100 mM MgCl2, pH 8.0, 37° C., 10 minutes. Format: biochemical. The method, then:
To 50 mM Tris HCl buffer solution (pH 8.0) containing 100 mM MgCl2, polyphosphate (10 mM calculated in terms of inorganic phosphate), and 5 mM of various NMP or dNMP was added PAP at various concentration, and the solution was incubate at 37° C. for 10 minutes. The reaction was terminated by heat treatment at 100° C. for 1 minute, and the solution after the reaction was subjected to HPLC to measure the amount of the NDP or the dNDP produced. The specific activity of each NMP or dNMP is shown in Table 1 as a relative value in relation to the specific activity of the PAP in the phosphorylation of the AMP, which is assumed 100%.

For data set [3], the system named is PAP from Acinetobacter johnsonii. To be noted: PAP obtained from Acinetobacter johnsonii, reported as AMP-specific; cited from earlier work.
A short description of data set [4]: Adenylate kinase activity measurement (ADP from AMP and ATP, HPLC). Type of data set: biochemical. The settings on record: cell extract; 1 unit = 2 μmole ADP at 37° C. in 1 minute. The method, then: The unit of the adenylate kinase activity is the one measured and calculated by the procedure as described below. Sample enzyme is added the 50 mM Tris HCl buffer solution (pH 7.8) containing 10 mM magnesium chloride, 10 mM AMP, and 10 mM ATP, and the solution is incubated at 37° C. to promote the reaction, and the reaction is terminated by a 1 minute heating at 100° C. Amount of the ADP in the reaction solution is measured by using HPLC, and the activity of producing 2 μmole of ADP at 37° C. in 1 minute is designated 1 unit.
E. coli adenylate kinase was prepared by the procedure described in the document (Proc. Natl. Acad. Sci. USA, 97, 14168-14171 (2000)). However, the cell extract produced by ultrasonication was used for the enzyme solution, and the specific activity of the adenylate kinase in the enzyme solution was 12.5 units/mg protein.

Data set [5] is described as follows: Thermal stability of PAP (residual activity). Format: physicochemical. To be noted: 10 minutes, pH 8.0, in the presence of the polyphosphate. On the procedure:
PAP was incubated for 10 minutes in 50 mM Tris HCl buffer solution (pH 8.0) containing 100 mM magnesium chloride in the presence or absence of polyphosphate (10 mM calculated in terms of inorganic phosphate) in the bath at various temperatures to measure the residual activity by the procedure as described above.

Data set [6] is described as follows: PAP activity measurement (ADP produced from AMP and polyphosphate, HPLC). Type of data set: biochemical. To be noted: partially purified by DEAE TOYOPEARL 650M; 1 unit = 1 μmole ADP at 37° C. in 1 minute. On the procedure: The “unit” used herein is the unit measured under the following conditions, and 1 unit corresponds to the activity of producing 1 μmole of ADP at 37° C. in 1 minute.
Sample enzyme is added to 50 mM Tris HCl buffer solution (pH 7.8) containing 20 mM magnesium chloride, 10 mM AMP, and polyphosphate (30 mM calculated in terms of inorganic phosphate) and the reaction is allowed to proceed by incubating the temperature at 37° C., and the reaction is thereafter terminated by a heat treatment at 100° C. for 1 minute, and amount of ADP in the reaction solution is measured by high performance liquid chromatography (HPLC).
It is to be noted that this productivity corresponds to about 150 times the productivity of the Acinetobacter Johnsonii. PAP was partially purified by fractionating the extract by ion exchange chromatography using DEAE TOYOPEARL 650M (TOSO) (eluent: 50 mM Tris HCl (pH 7.8), concentration gradient of 0 to 0.5M NaCl), and the collected fraction was used for the enzyme sample. The specific activity of the PAP in the collected fraction was 80.5 units/mg protein.

A short description of data set [7]: Optimal pH of PAP. Format: biochemical. To be noted: 37° C., 10 minutes, 5 mM AMP, polyphosphate 10 mM, 100 mM magnesium chloride. On the procedure: The reaction was allowed to proceed in either 50 mM maleate or 50 mM Tris HCl buffer solution of various pH at 37° C. for 10 minutes in the presence of 100 mM magnesium chloride, polyphosphate (10 mM calculated in terms of inorganic phosphate), and 5 mM AMP to measure the amount of the ADP produced by HPLC.

Data set [8] can be described thus: pH stability of PAP (residual activity). The settings on record: pH in the range of 7 to 9; activity at pH 8 = 100%; 37° C., 10 minutes, 100 mM magnesium chloride. Type of data set: physicochemical. The method, then: PAP was incubated in either 50 mM maleate or 50 mM Tris HCl buffer solution of various pH at 37° C. for 10 minutes in the presence of 100 mM magnesium chloride to measure the residual activity. The residual activity was measured by allowing the reaction to take place at 37° C. for 10 minutes in the presence of 50 mM Tris buffer solution (pH 8.0), 100 mM magnesium chloride, 5 mM AMP, and polyphosphate (10 mM calculated in terms of inorganic phosphate), and measuring the resulting ADP by HPLC.

Data set [9] can be described thus: Galactokinase activity measurement (galactose-1-phosphate produced, sugar analyzer). Format: biochemical. To be noted: partially purified; 1 unit = 1 μmole galactose-1-phosphate at 37° C. in 1 minute. The method, then:
E. coli strain JM109 having the plasmid pDR540 containing E. coli galactokinase gene (Gene, 20, 231(1982), obtained from Pharmacia) was inoculated in 2xYT medium containing 100 μg/ml ampicillin, and the E. coli was cultivated at 37° C. with shaking. When the cell density reached 4×10^8/ml, IPTG was added to the culture medium to a final concentration of 1 mM, and the incubation was continued at 30° C. for another 5 hours. After completion of the cultivation, the cells were collected by centrifugation and suspended in 30 ml buffer solution (50 mM Tris HCl (pH 7.8), 1 mM EDTA). The cells were lyzed by ultrasonication, and bacterial residue was removed by further centrifugation. The solution collected was subjected to ion exchange chromatography using DEAE Toyopearl 650M (Toso) (eluent: 50 mM Tris HCl (pH 7.8), concentration gradient of 0 to 0.5M NaCl) for fractionation and partial purification of the galactokinase. The thus recovered fraction was used for the enzyme solution of galactokinase. […]
The unit of the glactokinase activity was the one measured and calculated by the procedure as described below. […] Amount of the galactose-1-phosphate in the reaction solution was measured by using a sugar analyzer (Dionex), and the activity of producing 1 μmole of galactose-1-phosphate at 37° C. in 1 minute was designated 1 unit.

On to `Nc1ncnc2c1ncn2[C@@H]1O[C@H](COP(=O)(O)O)[C@@H](O)[C@H]1O` [AMP, adenosine 5′-monophosphate], for which, in [1], the NDP generated is given as 6.76 mM ADP. Besides, the “Specific activity (relative value)” value in data set [2] is 100%.
`Nc1ccn([C@@H]2O[C@H](COP(=O)(O)O)[C@@H](O)[C@H]2O)c(=O)n1` [CMP]: in data set [1], the NDP generated stood at 0.98 mM CDP. Moreover, in data set [3], the “phosphate-transfer by conventional PAP” value is reported as “no phosphotransfer at all”. In addition, the “Specific activity (relative value)” value in data set [2] is on record as 0.09%.
`Nc1nc2c(ncn2[C@@H]2O[C@H](COP(=O)(O)O)[C@@H](O)[C@H]2O)c(=O)[nH]1` [GMP]: the NDP generated in [1] stood at 7.16 mM GDP. Further, in [3], the “phosphate-transfer by conventional PAP” value is on record as “some phosphate-transfer”. In addition, the “Specific activity (relative value)” value in [2] is recorded as 10%.
Consider `Cc1cn([C@H]2C[C@H](O)[C@@H](COP(=O)(O)O)O2)c(=O)[nH]c1=O` [TMP], for which the “Specific activity (relative value)” value in [2] was 0.012%.
In data set [1], `O=c1ccn([C@@H]2O[C@H](COP(=O)(O)O)[C@@H](O)[C@H]2O)c(=O)[nH]1` [UMP] gave an NDP generated of 0.85 mM UDP. Also, the “phosphate-transfer by conventional PAP” value in data set [3] is given as “no phosphotransfer at all”. Moreover, the “Specific activity (relative value)” value in data set [2] was 0.13%.
For the molecule `Nc1ncnc2c1ncn2[C@H]1C[C@H](O)[C@@H](COP(=O)(O)O)O1` [dAMP], the “Specific activity (relative value)” value in data set [2] is 18%.
`Nc1ccn([C@H]2C[C@H](O)[C@@H](COP(=O)(O)O)O2)c(=O)n1` [dCMP]: in data set [2], the “Specific activity (relative value)” value amounted to 0.008%.
Consider `Nc1nc2c(ncn2[C@H]2C[C@H](O)[C@@H](COP(=O)(O)O)O2)c(=O)[nH]1` [dGMP], for which the “Specific activity (relative value)” value in [2] was determined as 2.6%.
For “adenylate kinase: E. coli adenylate kinase, cell extract used as enzyme solution”, the “specific activity of the adenylate kinase in the enzyme solution” value in data set [4] was found to be 12.5 units/mg protein.

B1: polyphosphate:AMP phosphotransferase (protein, listed as Acinetobacter jobnsonii)
chain: MDTETIASAVLNEEQLSLDLIEAQYALMNTRDQSNAKSLVILVSGIELAGKGEAVKQLREWVDPRFLYVKADPPHLFNLKQPFWQPYTRFVPAEGQIMVWFGNWYGDLLATAMHASKPLDDTLFDEYVSNMRAFEQDLKNNNVDVLKVWFDLSWKSLQKRLDDMDPSEVHWHKLHGLDWRNKKQYDTLQKLRTRFTDDWQIIDGEDEDLRNHNFAQAILTALRHCPEHEKKAALKWQQAPIPDILTQFEVPQAEDANYKSELKKLTKQVADAMRCDDRKVVIAFEGMDAAGKGGAIKRIVKKLDPREYEIHTIAAPEKYELRRPYLWRFWSKLQSDDITIFDRTWYGRVLVERVEGFATEVEWQRAYAEINRFEKNLSSSQTVLIKFWLAIDKDEQAARFKARESTPHKRFKITEEDWRNRDKWDDYLKAAADMFAHTDTSYAPWYIISTNDKQQARIEVLRAILKQLKADRDTD
For the molecule B1, in data set [5], the “thermal stability: stable up to” value was “approximately 50 °C”. The “specific activity of the PAP in the collected fraction” value in [6] is listed as 80.5 units/mg protein. Also, the “optimal pH” value in data set [7] is on record as “approximately 8.5”. In addition, in data set [8], the “enzymatic activity (residual) after incubation at various pH” value is listed as ≥ 80%.

B2: galactokinase: E. coli galactokinase, partially purified enzyme solution (protein, UniProt P0A6T3 2-382, looked up)
Galactokinase: SLKEKTQSLFANAFGYPATHTIQAPGRVNLIGEHTDYNDGFVLPCAIDYQTVISCAPRDDRKVRVMAADYENQLDEFSLDAPIVAHENYQWANYVRGVVKHLQLRNNSFGGVDMVISGNVPQGAGLSSSASLEVAVGTVLQQLYHLPLDGAQIALNGQEAENQFVGCNCGIMDQLISALGKKDHALLIDCRSLGTKAVSMPKGVAVVIINSNFKRTLVGSEYNTRREQCETGARFFQQPALRDVTIEEFNAVAHELDPIVAKRVRHILTENARTVEAASALEQGDLKRMGELMAESHASMRDDFEITVPQIDTLVEIVKAVIGDKGGVRMTGGGFGGCIVALIPEELVPAVQQAVAEQYEAKTGIKETFYVCKPSQGAGQC
With B2, the “specific activity of the galactokinase in the enzyme solution” value in data set [9] was 6.5 units/mg protein.
